The source of these data is ChEMBL document CHEMBL3991601, “The target landscape of clinical kinase drugs” (Science, 2017).

Activity calls are given as the source filed them. Cut-off read from the data, not from the text of the source, for most assays here: actives have a measured Kd and inactives only a lower limit.

Test [1] has as its target Mitogen-activated protein kinase 14 (Homo sapiens, UniProt Q16539).
Test [2] addresses Serine/threonine-protein kinase MRCK alpha (Homo sapiens, UniProt Q5VT25).
In test [3] the target is T1, Interleukin-1 receptor-associated kinase 4 (Homo sapiens, UniProt Q9NWZ3).
T1 sequence (Q9NWZ3 whole entry): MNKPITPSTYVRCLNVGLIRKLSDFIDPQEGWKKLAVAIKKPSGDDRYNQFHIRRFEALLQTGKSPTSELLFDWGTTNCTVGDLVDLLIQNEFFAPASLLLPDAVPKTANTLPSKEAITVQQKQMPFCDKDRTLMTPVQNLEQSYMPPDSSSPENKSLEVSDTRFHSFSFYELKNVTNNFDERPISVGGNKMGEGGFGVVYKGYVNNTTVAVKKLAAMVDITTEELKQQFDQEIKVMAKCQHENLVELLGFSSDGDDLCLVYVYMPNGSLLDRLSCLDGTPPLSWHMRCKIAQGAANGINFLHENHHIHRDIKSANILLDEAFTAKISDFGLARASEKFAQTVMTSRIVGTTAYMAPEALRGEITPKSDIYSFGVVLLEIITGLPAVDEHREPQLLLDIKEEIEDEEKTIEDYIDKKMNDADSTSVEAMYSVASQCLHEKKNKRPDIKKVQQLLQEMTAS

In test [4] the target is Mitogen-activated protein kinase 9 (Homo sapiens, UniProt P45984).
The target in test [5] is T2, Interleukin-1 receptor-associated kinase 3 (Homo sapiens, UniProt Q9Y616).
T2 sequence (Q9Y616 whole entry): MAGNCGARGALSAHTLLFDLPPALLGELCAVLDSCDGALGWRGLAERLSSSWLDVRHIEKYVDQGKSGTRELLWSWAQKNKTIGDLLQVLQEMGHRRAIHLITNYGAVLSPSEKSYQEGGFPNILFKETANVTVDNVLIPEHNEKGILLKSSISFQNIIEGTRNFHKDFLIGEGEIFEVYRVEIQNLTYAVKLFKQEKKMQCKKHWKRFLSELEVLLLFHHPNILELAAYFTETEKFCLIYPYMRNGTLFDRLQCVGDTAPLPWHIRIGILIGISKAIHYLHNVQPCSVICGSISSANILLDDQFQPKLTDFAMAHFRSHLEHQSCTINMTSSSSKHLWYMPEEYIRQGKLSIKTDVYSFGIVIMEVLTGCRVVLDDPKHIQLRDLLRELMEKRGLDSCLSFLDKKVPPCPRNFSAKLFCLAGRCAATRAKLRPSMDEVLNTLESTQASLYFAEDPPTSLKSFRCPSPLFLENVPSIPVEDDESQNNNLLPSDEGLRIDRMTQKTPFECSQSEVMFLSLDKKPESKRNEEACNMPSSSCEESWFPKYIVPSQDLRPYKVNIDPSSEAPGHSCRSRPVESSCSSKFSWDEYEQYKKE

The target in test [6] is T3, TGF-beta receptor type-1 (Homo sapiens, UniProt P36897).
T3 sequence (P36897 whole entry): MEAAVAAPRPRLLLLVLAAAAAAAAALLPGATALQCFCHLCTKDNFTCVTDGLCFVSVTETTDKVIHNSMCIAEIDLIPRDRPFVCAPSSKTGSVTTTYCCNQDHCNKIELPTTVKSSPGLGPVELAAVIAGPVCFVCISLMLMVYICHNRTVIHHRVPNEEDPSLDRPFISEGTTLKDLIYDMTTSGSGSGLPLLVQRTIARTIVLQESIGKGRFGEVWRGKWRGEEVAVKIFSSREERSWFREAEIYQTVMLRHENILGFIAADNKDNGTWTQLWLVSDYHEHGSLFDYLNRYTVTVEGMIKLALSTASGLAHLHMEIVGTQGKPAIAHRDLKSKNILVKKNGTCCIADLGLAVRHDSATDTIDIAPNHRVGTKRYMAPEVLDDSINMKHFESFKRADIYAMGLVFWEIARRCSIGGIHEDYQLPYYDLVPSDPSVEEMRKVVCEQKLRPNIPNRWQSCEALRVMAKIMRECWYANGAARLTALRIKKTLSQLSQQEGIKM

Test [7] concerns the target Tyrosine-protein kinase Fyn (Homo sapiens, UniProt P06241).
The target of test [8] is Serine/threonine-protein kinase SIK3 (Homo sapiens, UniProt Q9Y2K2).
In test [9] the target is Mitogen-activated protein kinase 1 (Homo sapiens, UniProt P28482).
In test [10] the target is GTP-binding protein 4 (Homo sapiens, UniProt Q9BZE4).
Test [11] has as its target High affinity nerve growth factor receptor (Homo sapiens, UniProt P04629).
Note: in the data inactive means no Kd found up to 30 µM.

Chain of Serine/threonine-protein kinase SIK3 (Q9Y2K2 whole entry): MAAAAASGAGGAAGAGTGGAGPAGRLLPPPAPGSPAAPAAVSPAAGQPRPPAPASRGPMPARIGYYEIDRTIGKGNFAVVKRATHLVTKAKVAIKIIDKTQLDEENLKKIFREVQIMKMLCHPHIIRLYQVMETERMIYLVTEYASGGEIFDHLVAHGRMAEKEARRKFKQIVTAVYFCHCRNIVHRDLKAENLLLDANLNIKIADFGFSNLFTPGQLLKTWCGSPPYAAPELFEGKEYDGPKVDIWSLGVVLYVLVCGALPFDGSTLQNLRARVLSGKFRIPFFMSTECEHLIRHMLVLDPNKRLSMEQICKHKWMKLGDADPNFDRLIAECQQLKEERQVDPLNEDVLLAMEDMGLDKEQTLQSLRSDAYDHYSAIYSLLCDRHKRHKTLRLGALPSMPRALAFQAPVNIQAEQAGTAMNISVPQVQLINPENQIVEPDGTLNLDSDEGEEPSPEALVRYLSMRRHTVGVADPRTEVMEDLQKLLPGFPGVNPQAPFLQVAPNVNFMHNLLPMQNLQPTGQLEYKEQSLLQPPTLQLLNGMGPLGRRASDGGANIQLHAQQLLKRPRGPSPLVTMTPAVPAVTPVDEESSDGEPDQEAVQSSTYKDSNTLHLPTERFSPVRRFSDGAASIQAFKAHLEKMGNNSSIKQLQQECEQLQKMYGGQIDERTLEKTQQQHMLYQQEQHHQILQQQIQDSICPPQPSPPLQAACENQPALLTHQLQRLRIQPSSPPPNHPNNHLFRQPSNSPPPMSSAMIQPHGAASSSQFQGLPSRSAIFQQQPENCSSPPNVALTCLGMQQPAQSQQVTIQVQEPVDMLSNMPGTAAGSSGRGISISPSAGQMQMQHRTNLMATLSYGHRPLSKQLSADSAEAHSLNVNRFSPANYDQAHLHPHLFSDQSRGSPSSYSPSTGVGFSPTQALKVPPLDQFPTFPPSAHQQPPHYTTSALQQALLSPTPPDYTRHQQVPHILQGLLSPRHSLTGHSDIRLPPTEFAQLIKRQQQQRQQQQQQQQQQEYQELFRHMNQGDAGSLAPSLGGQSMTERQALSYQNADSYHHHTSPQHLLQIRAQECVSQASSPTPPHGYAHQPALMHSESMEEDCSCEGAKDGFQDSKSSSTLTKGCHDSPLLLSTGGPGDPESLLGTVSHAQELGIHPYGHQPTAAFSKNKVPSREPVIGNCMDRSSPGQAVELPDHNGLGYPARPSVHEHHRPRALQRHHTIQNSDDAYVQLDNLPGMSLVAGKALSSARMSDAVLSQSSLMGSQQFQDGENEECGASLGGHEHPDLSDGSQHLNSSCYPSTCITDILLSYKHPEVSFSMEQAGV
Chain of Tyrosine-protein kinase Fyn (P06241 whole entry): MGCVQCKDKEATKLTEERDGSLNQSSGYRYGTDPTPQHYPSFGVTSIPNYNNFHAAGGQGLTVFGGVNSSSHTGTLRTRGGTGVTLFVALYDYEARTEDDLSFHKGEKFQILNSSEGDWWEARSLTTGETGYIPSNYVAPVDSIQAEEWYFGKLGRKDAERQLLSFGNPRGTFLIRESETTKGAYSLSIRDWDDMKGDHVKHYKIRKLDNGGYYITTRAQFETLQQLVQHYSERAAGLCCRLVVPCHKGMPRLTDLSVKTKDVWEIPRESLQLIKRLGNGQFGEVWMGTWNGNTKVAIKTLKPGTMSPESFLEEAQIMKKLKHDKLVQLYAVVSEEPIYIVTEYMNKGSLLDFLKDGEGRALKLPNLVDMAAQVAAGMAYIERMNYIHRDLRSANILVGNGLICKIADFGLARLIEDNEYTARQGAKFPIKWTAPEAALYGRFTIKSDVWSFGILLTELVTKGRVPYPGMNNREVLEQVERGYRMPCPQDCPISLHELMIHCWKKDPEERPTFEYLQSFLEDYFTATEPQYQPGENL
Chain of Mitogen-activated protein kinase 14 (Q16539 whole entry): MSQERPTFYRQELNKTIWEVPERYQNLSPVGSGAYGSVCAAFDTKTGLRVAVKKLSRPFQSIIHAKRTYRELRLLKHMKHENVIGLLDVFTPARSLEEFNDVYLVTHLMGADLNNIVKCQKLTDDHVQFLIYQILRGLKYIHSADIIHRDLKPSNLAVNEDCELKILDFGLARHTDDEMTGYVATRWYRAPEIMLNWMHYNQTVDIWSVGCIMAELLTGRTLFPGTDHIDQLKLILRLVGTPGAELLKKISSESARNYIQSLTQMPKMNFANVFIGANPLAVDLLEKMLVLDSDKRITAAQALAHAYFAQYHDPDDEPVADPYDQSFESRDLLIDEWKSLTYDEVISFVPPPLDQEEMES
Chain of High affinity nerve growth factor receptor (P04629 whole entry): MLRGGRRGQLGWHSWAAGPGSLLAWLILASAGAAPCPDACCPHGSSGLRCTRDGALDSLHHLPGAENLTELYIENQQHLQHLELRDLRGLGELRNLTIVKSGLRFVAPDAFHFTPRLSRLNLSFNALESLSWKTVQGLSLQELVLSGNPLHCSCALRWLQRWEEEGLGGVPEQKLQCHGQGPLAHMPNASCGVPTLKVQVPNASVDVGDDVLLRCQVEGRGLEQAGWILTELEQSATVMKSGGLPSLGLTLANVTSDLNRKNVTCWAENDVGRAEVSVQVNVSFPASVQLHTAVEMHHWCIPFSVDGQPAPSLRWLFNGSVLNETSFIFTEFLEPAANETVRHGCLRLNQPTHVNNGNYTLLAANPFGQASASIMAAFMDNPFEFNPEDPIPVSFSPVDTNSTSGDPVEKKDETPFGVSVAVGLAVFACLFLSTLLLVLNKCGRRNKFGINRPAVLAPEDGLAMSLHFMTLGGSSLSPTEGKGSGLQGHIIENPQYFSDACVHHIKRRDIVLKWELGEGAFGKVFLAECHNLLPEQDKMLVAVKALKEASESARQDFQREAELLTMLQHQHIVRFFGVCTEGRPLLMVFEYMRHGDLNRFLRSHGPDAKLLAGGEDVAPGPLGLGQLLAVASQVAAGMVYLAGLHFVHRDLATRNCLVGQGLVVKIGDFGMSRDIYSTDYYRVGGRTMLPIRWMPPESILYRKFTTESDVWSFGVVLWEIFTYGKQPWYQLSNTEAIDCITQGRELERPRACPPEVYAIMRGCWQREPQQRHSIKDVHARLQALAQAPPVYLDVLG
Chain of Serine/threonine-protein kinase MRCK alpha (Q5VT25 whole entry): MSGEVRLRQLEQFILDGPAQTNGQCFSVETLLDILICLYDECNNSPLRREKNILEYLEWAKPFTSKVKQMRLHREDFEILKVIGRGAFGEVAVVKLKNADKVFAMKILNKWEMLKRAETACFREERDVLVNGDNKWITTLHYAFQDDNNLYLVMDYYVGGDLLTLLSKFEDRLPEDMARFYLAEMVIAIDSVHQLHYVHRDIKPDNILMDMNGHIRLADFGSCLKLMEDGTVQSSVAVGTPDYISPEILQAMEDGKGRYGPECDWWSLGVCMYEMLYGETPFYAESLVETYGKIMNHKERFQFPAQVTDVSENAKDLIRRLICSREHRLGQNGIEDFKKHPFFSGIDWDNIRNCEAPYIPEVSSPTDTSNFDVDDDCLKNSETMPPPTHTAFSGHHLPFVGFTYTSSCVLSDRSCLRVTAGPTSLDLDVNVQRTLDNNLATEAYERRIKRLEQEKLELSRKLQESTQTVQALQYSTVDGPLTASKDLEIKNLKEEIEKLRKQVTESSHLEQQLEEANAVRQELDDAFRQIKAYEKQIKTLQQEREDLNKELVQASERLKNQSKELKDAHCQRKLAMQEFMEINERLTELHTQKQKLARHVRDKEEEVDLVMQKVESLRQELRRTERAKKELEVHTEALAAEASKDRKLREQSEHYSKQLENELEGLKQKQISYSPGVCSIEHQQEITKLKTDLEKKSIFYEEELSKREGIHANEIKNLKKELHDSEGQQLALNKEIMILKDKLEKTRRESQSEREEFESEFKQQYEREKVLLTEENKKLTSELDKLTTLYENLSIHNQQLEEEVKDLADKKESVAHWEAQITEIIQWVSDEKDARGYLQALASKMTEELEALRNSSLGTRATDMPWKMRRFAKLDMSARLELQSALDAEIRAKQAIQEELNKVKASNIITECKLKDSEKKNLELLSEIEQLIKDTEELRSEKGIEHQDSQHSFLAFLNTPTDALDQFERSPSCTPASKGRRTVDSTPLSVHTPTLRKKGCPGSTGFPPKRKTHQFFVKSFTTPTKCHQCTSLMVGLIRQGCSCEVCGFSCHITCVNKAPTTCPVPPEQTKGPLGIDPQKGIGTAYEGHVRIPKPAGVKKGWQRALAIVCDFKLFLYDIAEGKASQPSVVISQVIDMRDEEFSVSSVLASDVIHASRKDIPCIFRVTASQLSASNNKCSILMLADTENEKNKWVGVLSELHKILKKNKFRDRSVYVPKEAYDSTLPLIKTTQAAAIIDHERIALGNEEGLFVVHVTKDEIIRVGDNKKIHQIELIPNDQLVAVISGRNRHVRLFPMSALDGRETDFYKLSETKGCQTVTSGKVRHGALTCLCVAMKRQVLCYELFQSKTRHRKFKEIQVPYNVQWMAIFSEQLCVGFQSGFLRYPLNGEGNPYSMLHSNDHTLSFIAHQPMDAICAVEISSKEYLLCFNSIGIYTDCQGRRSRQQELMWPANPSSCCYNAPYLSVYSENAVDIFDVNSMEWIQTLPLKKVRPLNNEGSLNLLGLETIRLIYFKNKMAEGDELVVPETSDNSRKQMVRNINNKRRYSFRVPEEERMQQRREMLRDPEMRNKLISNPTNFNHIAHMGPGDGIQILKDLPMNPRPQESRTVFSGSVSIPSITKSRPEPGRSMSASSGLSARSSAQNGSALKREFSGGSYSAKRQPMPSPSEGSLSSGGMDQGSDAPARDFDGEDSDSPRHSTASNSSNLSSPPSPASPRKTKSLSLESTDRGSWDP

Regarding `CCNC(=O)C#Cc1ccc2c(c1)NC(=O)/C2=C(\Nc1ccc(CN(C)C)cc1)c1ccccc1`, the Kd in [1], in test [2], in [3], in [4], in [5] and in test [6] was > 30 µM (inactive) each time. In addition, the dissociation constant Kd in [7] is 0.187 µM (active); in test [8], > 30 µM (inactive); in [9] it was > 30 µM (inactive).

For `COc1cc(Nc2ncc3c(n2)-c2ccc(Cl)cc2C(c2c(F)cccc2OC)=NC3)ccc1C(=O)O` [ALISERTIB], the Kd in [10], in [5], in test [6] and in test [8] was > 30 µM (inactive) throughout.

Take `Cc1nc(NC(=O)N2CCC[C@H]2C(N)=O)sc1-c1ccnc(C(C)(C)C(F)(F)F)c1` [ALPELISIB]: the Kd in [1], in test [10], in test [2], in test [3], in test [4] and in [5] was > 30 µM (inactive) each time. In addition, the Kd in [6], in test [7], in test [8] and in [9] was > 30 µM (inactive) in each case.

Turning to `O=C(Nc1c[nH]nc1-c1nc2cc(CN3CCOCC3)ccc2[nH]1)NC1CC1` [AT-9283], the Kd in [1] is > 30 µM (inactive); in test [10], > 30 µM (inactive); in test [2], > 30 µM (inactive); in test [3] it was > 30 µM (inactive); in test [4] it was 0.509 µM (active); in [5], > 30 µM (inactive). Besides, the dissociation constant (Kd) in [6] is 0.077 µM (active); in [11], > 30 µM (inactive); in [8], 4.11 µM (active); in test [9], > 30 µM (inactive).

As for `CNC(=O)c1ccccc1Sc1ccc2c(/C=C/c3ccccn3)n[nH]c2c1` [AXITINIB], in test [10], the Kd is > 30 µM (inactive).

Consider `NC(=O)Nc1cc(-c2cccc(F)c2)sc1C(=O)N[C@H]1CCCNC1` [AZD-7762], for which the Kd in [1], in [10], in test [2], in test [4], in test [5] and in test [6] was > 30 µM (inactive) throughout. Also, the Kd was 0.284 µM (active) in [7], 0.043 µM (active) in test [8] and > 30 µM (inactive) in test [9].

As for `CCn1c(C(=O)N(C2CC2)C2CC2)cc2c3c(ncn3C)c(Nc3cc(C)n(C)n3)nc21` [BMS-911543], the Kd in test [1], in test [10], in test [2], in [3], in test [4] and in test [5] was > 30 µM (inactive) in each case. Also, the Kd in test [6], in [7], in test [8] and in [9] was > 30 µM (inactive) each time.

For the compound `CC(C)(C)c1nc(-c2cccc(NS(=O)(=O)c3c(F)cccc3F)c2F)c(-c2ccnc(N)n2)s1` [DABRAFENIB], the Kd in test [10] was > 30 µM (inactive); in test [2] it was > 30 µM (inactive); in [3], > 30 µM (inactive); in test [5] it was > 30 µM (inactive); in [6], 2.38 µM (active); in test [8], 2 µM (active). Further, the Kd in test [9] was > 30 µM (inactive).

`Cn1cc(C2=C(c3cn(C4CCN(Cc5ccccn5)CC4)c4ccccc34)C(=O)NC2=O)c2ccccc21` [ENZASTAURIN]: the Kd in test [10] was > 30 µM (inactive).

Regarding `C[C@@H](Oc1cc(-n2cnc3ccc(CN4CCN(C)CC4)cc32)sc1C(N)=O)c1ccccc1C(F)(F)F` [GSK-461364], the Kd in test [10] is > 30 µM (inactive).

For `Cc1[nH]c(/C=C2\C(=O)Nc3ccccc32)c(C)c1CCC(=O)O` [ORANTINIB], the Kd in [1], in test [10], in test [5], in test [6] and in [8] was > 30 µM (inactive) in each case.

For the compound `NC(=O)c1c(OCc2c(F)cc(Br)cc2F)nsc1NC(=O)NCCCCN1CCCC1` [OSI-632], the Kd in [10] was > 30 µM (inactive); in test [5] it was > 30 µM (inactive); in test [6] it was 0.005 µM (active).

Take `CCOc1cc2ncc(C#N)c(Nc3ccc(F)c(Cl)c3)c2cc1NC(=O)/C=C/CN(C)C` [PELITINIB]: the Kd in test [1], in test [10], in test [2], in test [3], in test [4] and in test [5] was > 30 µM (inactive) in each case. In addition, the Kd in test [6], in test [11], in [8] and in test [9] was > 30 µM (inactive) each time.

Regarding `CC(=O)NCC(=O)N1[C@@H]2CC[C@H]1c1ccc(Nc3ncc(C(F)(F)F)c(NC4CCC4)n3)cc12` [PF-03814735], the Kd in [5] was > 30 µM (inactive); in [6], > 30 µM (inactive); in test [8] it was 9.65 µM (active).

For `CNC(=O)c1cc(Oc2ccc(NC(=O)Nc3cc(C(C)(C)C)nn3-c3ccc4ncccc4c3)c(F)c2)ccn1` [REBASTINIB], the Kd is 2.76 µM (active) in test [1]; > 30 µM (inactive) in test [10]; > 30 µM (inactive) in [2]; 23.2 µM (active) in test [3]; 0.98 µM (active) in [4]; > 30 µM (inactive) in test [5]. For the same compound, the Kd in test [6], in test [8] and in test [9] was > 30 µM (inactive) in each case.

On to `O=C(NOCCO)c1cc(CN2OCCCC2=O)c(F)c(F)c1Nc1ccc(I)cc1F` [RO-4987655], for which, in test [10], the Kd was > 30 µM (inactive).

As for `N#CC[C@H](C1CCCC1)n1cc(-c2ncnc3[nH]ccc23)cn1` [RUXOLITINIB], the Kd in test [10] was > 30 µM (inactive).

Take `CN1CCN(CCOc2cc(OC3CCOCC3)c3c(Nc4c(Cl)ccc5c4OCO5)ncnc3c2)CC1` [SARACATINIB]: the Kd was > 30 µM (inactive) in [1]; > 30 µM (inactive) in test [2]; > 30 µM (inactive) in test [3]; > 30 µM (inactive) in test [4]; > 30 µM (inactive) in [5]; 0.197 µM (active) in test [6]. Further, the Kd in [11] was > 30 µM (inactive); in test [8], 4.85 µM (active); in test [9], > 30 µM (inactive).

Turning to `CN1C/C=C/CCOc2cccc(c2)-c2ccnc(n2)Nc2cccc(c2)C1` [ZOTIRACICLIB], the Kd in test [1] is > 30 µM (inactive); in test [10], > 30 µM (inactive); in test [2], > 30 µM (inactive); in test [3], > 30 µM (inactive); in test [4], 2.31 µM (active); in test [5], 0.286 µM (active). The Kd in test [6] is > 30 µM (inactive); in [7], > 30 µM (inactive); in [8], 1.3 µM; in test [9], > 30 µM (inactive).

Usually Kd stands for the equilibrium constant for the complex coming apart.
